The values below are quoted from earlier work in publication PMC7756498 (Chemistry (Weinheim an Der Bergstrasse, Germany), 2020).

The series concerns P. aeruginosa. As to conditions: ref [18].

sansanmycin B [sansanmycin B 13]: the “MIC (anti-Pseudomonas activity)” value is 4 to 16 µg/mL.
